Laboratory results: patent US20250134869A1, “Pyrrolo[2,3-d]pyrimidinyl, Pyrrolo[2,3-b]pyrazinyl and Pyrrolo[2,3-d]pyridinyl Acryla-mides” (Pfizer Inc, priority 2021, published 2025)
Where two headings read alike, the source gives them in different places.

Molecular target: JAK3 enzyme (Homo sapiens (Human), UniProt P52333)
Test: JAK Caliper Enzyme Assay at 4 μM or 1 mM ATP
Assay type: biochemical
[1] = read-out: JAK3 (4 μM ATP) IC50, 4 μM ATP
[2] = read-out: JAK3 (1 mM ATP) IC50, 1 mM ATP

Sequence of JAK3 enzyme (P52333 whole entry, species assumed): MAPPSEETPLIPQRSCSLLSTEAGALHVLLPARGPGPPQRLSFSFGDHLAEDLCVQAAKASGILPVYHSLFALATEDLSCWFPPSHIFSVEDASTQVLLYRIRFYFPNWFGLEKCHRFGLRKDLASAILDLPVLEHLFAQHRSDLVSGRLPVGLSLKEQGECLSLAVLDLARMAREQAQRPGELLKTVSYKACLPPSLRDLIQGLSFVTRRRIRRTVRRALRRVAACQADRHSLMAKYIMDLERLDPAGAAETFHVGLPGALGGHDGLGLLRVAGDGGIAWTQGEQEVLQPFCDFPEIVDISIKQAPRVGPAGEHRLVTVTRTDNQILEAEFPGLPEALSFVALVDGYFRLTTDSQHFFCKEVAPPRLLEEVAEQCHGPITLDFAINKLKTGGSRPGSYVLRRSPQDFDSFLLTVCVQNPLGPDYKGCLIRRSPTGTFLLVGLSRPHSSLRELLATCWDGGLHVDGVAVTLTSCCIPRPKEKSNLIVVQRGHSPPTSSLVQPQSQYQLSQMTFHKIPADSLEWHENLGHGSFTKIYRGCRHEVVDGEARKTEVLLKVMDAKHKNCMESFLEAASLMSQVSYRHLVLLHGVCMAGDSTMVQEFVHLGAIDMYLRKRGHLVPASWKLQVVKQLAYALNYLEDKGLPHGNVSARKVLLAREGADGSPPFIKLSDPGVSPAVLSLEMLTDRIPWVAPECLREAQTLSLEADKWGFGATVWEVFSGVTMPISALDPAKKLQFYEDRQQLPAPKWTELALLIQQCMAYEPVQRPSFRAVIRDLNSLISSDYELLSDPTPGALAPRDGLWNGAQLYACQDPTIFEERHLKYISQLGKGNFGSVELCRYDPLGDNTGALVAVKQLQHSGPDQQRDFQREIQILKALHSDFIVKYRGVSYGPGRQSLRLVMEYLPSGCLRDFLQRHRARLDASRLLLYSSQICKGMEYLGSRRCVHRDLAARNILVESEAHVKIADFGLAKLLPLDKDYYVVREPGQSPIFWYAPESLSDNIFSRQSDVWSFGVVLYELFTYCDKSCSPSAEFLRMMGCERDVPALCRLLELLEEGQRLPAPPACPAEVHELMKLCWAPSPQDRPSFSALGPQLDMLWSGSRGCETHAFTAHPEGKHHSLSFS

Row | SMILES | IC50 [1] [nM] | IC50 [2] [nM]
1 | N#CC(C(=O)N1CCC[C@@H](Nc2ncnc3[nH]ccc23)C1)=C1CCOCC1 [Example 101, 3-oxo-3-[(3R)-3-(7H-pyrrolo[2,3-d]pyrimidin-4-ylamino)piperidin-1-yl]-2-(tetrahydro-4H-pyran-4-ylidene)propanenitrile] | 881 | > 10000
2 | C=CC(=O)N1CCC(Nc2cnc3[nH]ccc3n2)CC1 [Example 176, 1-[4-(5H-pyrrolo[2,3-b]pyrazin-2-ylamino)piperidin-1-yl]prop-2-en-1-one] | 7.2 | 910
3 | C=CC(=O)N1CCC[C@@H](Nc2ncnc3[nH]cc(CC)c23)C1 [Example 44, 1-{(3R)-3-[(5-ethyl-7H-pyrrolo[2,3-d]pyrimidin-4-yl)amino]piperidin-1-yl}prop-2-en-1-one] | 0.3 | 168
4 | C#Cc1c[nH]c2ncnc(N3CC[C@H]4CCN(C(=O)C=C)C[C@H]43)c12 [Example 48, 1-[(3aS,7aS)-1-(5-ethynyl-7H-pyrrolo[2,3-d]pyrimidin-4-yl)octahydro-6H-pyrrolo[2,3-c]pyridin-6-yl]prop-2-en-1-one] | 0.8 | 101
5 | C=CC(=O)N1CCC(Nc2cnc3[nH]cc(-c4ccc(F)nc4)c3n2)CC1 [Example 207, 1-(4-{[7-(6-fluoropyridin-3-yl)-5H-pyrrolo[2,3-b]pyrazin-2-yl]amino}piperidin-1-yl)prop-2-en-1-one] | 0.3 | 28.9
6 | C=CC(=O)N1CC2COCC(C1)N2c1cnc2[nH]cc(C(=O)NC(C)C)c2n1 [Example 324, 2-(7-acryloyl-3-oxa-7,9-diazabicyclo[3.3.1]non-9-yl)-N-(propan-2-yl)-5H-pyrrolo[2,3-b]pyrazine-7-carboxamide] | 37.5 | 3100
7 | C=CC(=O)NC[C@@]12C[C@@H]1CN(c1cnc3[nH]cc(C(=O)NC(C)C)c3n1)C2 [Example 183, 2-{(1R,5S)-1-[(acryloylamino)methyl]-3-azabicyclo[3.1.0]hex-3-yl}-N-(propan-2-yl)-5H-pyrrolo[2,3-b]pyrazine-7-carboxamide] | 9.6 | 794
8 | C=CC(=O)N1CCC[C@@H](Nc2ncnc3[nH]cc(C)c23)C1 [Example 43, 1-{(3R)-3-[(5-methyl-7H-pyrrolo[2,3-d]pyrimidin-4-yl)amino]piperidin-1-yl}prop-2-en-1-one] | 1.2 | 99.5
9 | C=CC(=O)N1C[C@@H](Nc2ncnc3[nH]ccc23)CC[C@@H]1CC [Example 125, 1-[(2S,5S)-2-Ethyl-5-(7H-pyrrolo[2,3-d]pyrimidin-4-ylamino)piperidin-1-yl]prop-2-en-1-one] | 1420 | > 10000
10 | C=CC(=O)N1CC[C@@H](Nc2cnc3[nH]cc(C(=O)NC(C)C)c3n2)[C@H](O)C1 [Example 196, 2-{[(3R,4R)-1-acryloyl-3-hydroxypiperidin-4-yl]amino}-N-(propan-2-yl)-5H-pyrrolo[2,3-b]pyrazine-7-carboxamide] | 0.3 | 30.6
11 | C=CC(=O)N(C)C1CN(c2cnc3[nH]cc(C(=O)NC(C)C)c3n2)C1 [Example 187, 2-{3-[acryloyl(methyl)amino]azetidin-1-yl}-N-(propan-2-yl)-5H-pyrrolo[2,3-b]pyrazine-7-carboxamide] | 0.6 | 27.2
12 | C=CC(=O)N1CCC(Oc2cnc3[nH]cc(-c4ccc(S(C)(=O)=O)cc4)c3n2)CC1 [Example 229, 1-[4-({7-[4-(methylsulfonyl)phenyl]-5H-pyrrolo[2,3-b]pyrazin-2-yl}oxy)piperidin-1-yl]prop-2-en-1-one] | 7.1 | 745
13 | C=CC(=O)N1CC[C@@H](C)[C@@H](N(C)c2ncnc3[nH]ccc23)C1 [Example 130, 1-{(3R,4R)-4-Methyl-3-[methyl(7H-pyrrolo[2,3-d]pyrimidin-4-yl)amino]piperidin-1-yl}prop-2-en-1-one] | 75.2 | –
14 | C=CC(=O)N1CCC[C@@H](Nc2ncnc3[nH]cc(Cc4ccc(O)cc4)c23)C1 [Example 137, 1-[(3R)-3-{[5-(4-Hydroxybenzyl)-7H-pyrrolo[2,3-d]pyrimidin-4-yl]amino}piperidin-1-yl]prop-2-en-1-one] | 0.3 | –
15 | CN(C)C/C=C/C(=O)N1CCC[C@@H](Nc2ncnc3[nH]cc(CCC#N)c23)C1 [Example 157, 3-[4-({(3R)-1-[(2E)-4-(Dimethylamino)but-2-enoyl]piperidin-3-yl}amino)-7H-pyrrolo[2,3-d]pyrimidin-5-yl]propanenitrile] | 1470 | –

Next, values leading:

Row | IC50 [1] [nM] | IC50 [2] [nM] | SMILES
16 | 1.5 | 181 | C=CC(=O)N1CCN(c2cnc3[nH]cc(C(=O)NC(C)C)c3n2)[C@@H](C)C1 [Example 297, 2-[(2S)-4-acryloyl-2-methylpiperazin-1-yl]-N-(propan-2-yl)-5H-pyrrolo[2,3-b]pyrazine-7-carboxamide]
17 | 0.2 | 6.9 | C=CC(=O)N1CCC(Nc2cnc3[nH]cc(C(=O)NCC(C)CC(F)(F)F)c3n2)CC1 (stereo not drawn) [Example 253, 2-[(1-acryloylpiperidin-4-yl)amino]-N-(4,4,4-trifluoro-2-methylbutyl)-5H-pyrrolo[2,3-b]pyrazine-7-carboxamide]
18 | 0.3 | 25 | C=CC(=O)N1CCC(Nc2cnc3[nH]cc(C(=O)NCC4(O)CCCC4)c3n2)CC1 [Example 232, 2-[(1-acryloylpiperidin-4-yl)amino]-N-[(1-hydroxycyclopentyl)methyl]-5H-pyrrolo[2,3-b]pyrazine-7-carboxamide]
19 | 0.3 | 6.4 | C=CC(=O)N1CCC(Nc2cnc3[nH]cc(C(=O)NCCC(F)(F)F)c3n2)CC1 [Example 246, 2-[(1-acryloylpiperidin-4-yl)amino]-N-(3,3,3-trifluoropropyl)-5H-pyrrolo[2,3-b]pyrazine-7-carboxamide]
20 | 1.1 | 89.8 | C=CC(=O)N1CCN(c2cnc3[nH]cc(C(=O)NC(C)C)c3n2)C[C@@H]1C [Example 295, 2-[(3S)-4-acryloyl-3-methylpiperazin-1-yl]-N-(propan-2-yl)-5H-pyrrolo[2,3-b]pyrazine-7-carboxamide]
21 | 0.4 | 14.9 | C=CC(=O)N1CCC(Nc2cnc3[nH]cc(C(=O)NCC(C)(C)C)c3n2)CC1 [Example 271, 2-[(1-acryloylpiperidin-4-yl)amino]-N-(2,2-dimethylpropyl)-5H-pyrrolo[2,3-b]pyrazine-7-carboxamide]
22 | 0.4 | 11.4 | C=CC(=O)N1CCC(Nc2cnc3[nH]cc(C(=O)NCC(F)(F)F)c3n2)CC1 [Example 273, 2-[(1-acryloylpiperidin-4-yl)amino]-N-(2,2,2-trifluoroethyl)-5H-pyrrolo[2,3-b]pyrazine-7-carboxamide]
23 | 0.4 | 40.2 | C=CC(=O)N1CCC(Nc2cnc3[nH]cc(C(=O)N[C@H](C(C)C)[C@@H](O)C(F)(F)F)c3n2)CC1 [Example 248, 2-[(1-acryloylpiperidin-4-yl)amino]-N-[(2R,3R)-1,1,1-trifluoro-2-hydroxy-4-methylpentan-3-yl]-5H-pyrrolo[2,3-b]pyrazine-7-carboxamide]
24 | 0.3 | 7.1 | C=CC(=O)N1CCC(Nc2cnc3[nH]cc(C(=O)N[C@H](C)CC)c3n2)CC1 [Example 289, 2-[(1-acryloylpiperidin-4-yl)amino]-N-[(2R)-butan-2-yl]-5H-pyrrolo[2,3-b]pyrazine-7-carboxamide]
